Test results reported in patent US7396529B2, “Compositions and methods for regulating receptor clustering” (Mount Sinai Hospital, priority 2001, dated 2008).
“Also recorded” adds a separate entry of the source.

What was measured:
[1] = system: protein tyrosine phosphorylation in T cells; assay: TCR signaling: phosphotyrosine Western blot after anti-CD3ε bead stimulation; type: cell-based, mouse; conditions: for Protein phosphorylation induced by anti-CD3ε antibody coated beads: Mgat5+/+ T cells, disaccharide 1/3 serial dilution from 2.4 mM, 1 min stimulation
[2] = target: Galectins; conditions: range; 8; read-out: Dissociation constant for galectin binding; cited from earlier work
[3] = system: TCR clustering in wild type (Mgat5+/+) T cells; assay: TCR clustering at anti-CD3ε antibody-coated beads after disaccharide pre-incubation; type: cell-based, mouse; conditions: for Enhanced TCR clustering observed (cells with clustering / cells examined): Mgat5+/+ T cells pre-incubated 20 min with 2 mM disaccharide, then anti-CD3ε antibody-coated beads 10 min, stained for TCR; for Effect on TCR clustering at the bead interface: wild type ex vivo T cells, 20 min disaccharide pre-incubation, 10 min anti-CD3ε bead stimulation
Experimental: TCR clustering: Six-micron polystyrene beads (Polysciences) in PBS were coated with hamster anti-mouse CD3ε antibody (Clone 2C11; Cederlane) at 2 μg/ml antibody followed by coating with 200 μg/ml bovine serum albumin (BSA). To measure TCR clustering, 5×10^4 T cells were incubated with 2.5×10^5 anti-CD3ε antibody-coated beads in 100 μl RPMI 1640+10% FCS at 37° C. for 10 minutes placed on poly-L-lysine coated cover slips. The cells were fixed with 10% formalin, stained with 2 μg/ml fluorescein isothiocyanate (FITC) labeled anti-TCRα/β antibody (Pharmigen), solubilized with 0.2% Triton X-100, labelled with rhodamine-phalloidin and Hoechst, and then visualized by deconvolution microscopy. […] To measure TCR internalization, purified splenic T cells stimulated with either 0.1 μg/ml^−1 anti-CD3 antibody or with 10 ng/ml PMA for varying lengths of time were harvested and stained with FITC-anti-TCRα/β. PMA concentrations were not limiting as 10, 50 and 100 ng/ml produced similar internalization and cell activation results. To measure actin reorganization, purified splenic T cells, stimulated with 0.1 μg/ml^−1 anti-CD3 for varying lengths of time, were fixed with 4% paraformaldehyde for 10 minutes, washed with PBS and stained with rhodamine-phalloidin and mean fluorescence intensity (MFI) was determined by FACS.

[4] = system: T cell proliferation; conditions: depletion of Mgat5 modified glycans; cited from earlier work
[5] = system: EAE; conditions: injected into mice; cited from earlier work

| Molecule | Protein phosphorylation induced by anti-CD3ε antibody coated beads [1] | Kd [2] [µM] | Enhanced TCR clustering observed (cells with clustering / cells examined) [3] | Effect on TCR clustering at the bead interface [3] | also measured |
| --- | --- | --- | --- | --- | --- |
| N[C@H]1C(O)O[C@H](CO)[C@@H](O[C@@H]2O[C@H](CO)[C@H](O)[C@H](O)[C@H]2O)[C@@H]1O (stereo partly shown) [Lactosamine] | enhanced protein phosphorylation | ~100 |  |  |  |
| OC[C@H]1O[C@@H](O[C@H]2[C@H](O)[C@@H](O)C(O)O[C@@H]2CO)[C@H](O)[C@@H](O)[C@H]1O (stereo partly shown) [lactose] | enhanced protein phosphorylation | ~100 | 9/10 | increased TCR clustering at the bead interface; also recorded: produced a phenocopy of Mgat5^−/− TCR clustering | Signaling in Mgat5−/− T cells ([1]; Mgat5−/− T cells, data not shown): did not enhance signaling |
| OC[C@H]1O[C@H](O[C@H]2[C@H](O)[C@@H](O)[C@H](O)O[C@@H]2CO)[C@H](O)[C@@H](O)[C@@H]1O [maltose] | no effect |  |  |  |  |
| OC[C@H]1O[C@@](CO)(O[C@H]2O[C@H](CO)[C@@H](O)[C@H](O)[C@H]2O)[C@@H](O)[C@@H]1O [sucrose] | no effect |  | 1/10 | not altered |  |
| O[C@H]1[C@H]2[C@H](O)CCCN2C[C@H]1O [swainsonine] |  |  |  |  | Effect on antigen-dependent T cell proliferation [4]: potentiates antigen-dependent T cell proliferation |
| galectin-1: exogenously added beta-galactoside-binding lectin |  |  |  |  | Effect on pathology of EAE [5]: suppresses the pathology of EAE |
